Reference: patent publication US20230382920A1, “SHMT Inhibitors” (The Trustees of Princeton University, priority 2020, published 2023)

What was measured:
HCT116 = HCT116 growth inhibition assay; type: cell-based; details: without formate
Experimental: Example 5. HCT116 Growth Inhibition and Formate Rescue Assays
3,000 Cells were plated in each well of a 96-well plate with 80 μL of DMEM media supplemented with 10% dFBS, and incubated for 24 hours. Drugs with or without sodium formate (1 mM) were then added to each well to a final volume of 100 μL. Cell growth was measured as fluorescence intensity by resazurin after four days. In short, resazurin was added to each well to a final concentration of 10 μg·mL^−1. After incubation for one hour, fluorescence was measured by a Synergy HT plate reader (BioTek Instruments).

[1] = Mouse liver microsome assay (metabolic stability); type: in vitro ADME; details: mouse liver microsomes; for half-life at 2 µM: in vitro half-life; for microsomal CLint at 2 µM: in vitro intrinsic clearance, read-out: Relative Clint
Experimental: Example 6. Mouse Liver Microsome Assay
Metabolic stability of several compounds in mouse liver microsomes was tested. Briefly, a master solution was prepared according to Table 31.
Two separate experiments were performed: an experiment with cofactors and an experiment without cofactors. In the experiment with cofactors 40 μL of 10 mM NADPH and 40 μL of 20 mM UDPGA were added to the incubations. The final concentrations of microsomes, NADPH and UDPGA were 0.5 mg/mL, 1 mM and 2 mM, respectively. In the experiment without cofactors 10 μL of 20 mg/mL liver microsomes and 80 μL of ultra-pure H2O were added to the incubations. The final concentration of microsomes was 0.5 mg/mL. The mixture was pre-warmed at 37° C. for 5 minutes.
The reaction was started with the addition of 4 μL of 200 μM control compound or test compound solutions. Verapamil was used as positive control in this study. The final concentration of test compound was 2 μM and the final concentration of control compound was 1 μM. The incubation solution was incubated in water bath at 37° C.
Aliquots of 50 μL were taken from the reaction solution at 0.5, 5, 15, 30, 45 and 60 minutes. The reaction was stopped by the addition of five volumes of cold acetonitrile with IS (100 nM alprazolam, 200 nM caffeine and 100 nM tolbutamide). Samples were centrifuged at 3,220 g for 40 minutes. Aliquot of 100 μL of the supernatant was mixed with 100 μL of ultra-pure H2O and then subject to LC-MS/MS analysis.
All calculations were carried out using Microsoft Excel. Peak areas were determined from extracted ion chromatograms. The slope value, k, was determined by linear regression of the natural logarithm of the remaining percentage of the parent drug versus incubation time curve. The in vitro half-life (in vitro t½) was determined from the slope value:
Conversion of the in vitro t1/2(min) into the in vitro intrinsic clearance (in vitro CLint, in μL/min/mg protein) was done using the following equation (mean of duplicate determinations): […]

| Compound | IC50 (HCT116) | half-life at 2 µM [1] [min] | microsomal CLint at 2 µM [1] [µL/min/mg] |
| --- | --- | --- | --- |
| Cc1n[nH]c2c1C(c1cc(C#C[C@H]3C[C@H](C(C)(C)O)C3)cc(CO)c1)(C(C)C)C(C#N)=C(N)O2 (some centres unmarked) [KDG-0258-100] | B″ | – | – |
| Cc1n[nH]c2c1C(c1cc(C#C[C@H]3C[C@H](C(C)(C)O)C3)cc(CO)c1)(C(C)C)C(C#N)=C(N)O2 (some centres unmarked) [KDG-0258] | A″ | < 5 | > 250 |
| Cc1n[nH]c2c1C(c1cc(C#C[C@H]3C[C@@H](CO)C3)cc(C(C)(C)O)c1)(C(C)C)C(C#N)=C(N)O2 (some centres unmarked) [KDG-0260-100] | D″ | – | – |
| Cc1n[nH]c2c1C(c1cc(C#C[C@H]3C[C@H](C(C)(C)O)C3)cc(C(C)(C)O)c1)(C(C)C)C(C#N)=C(N)O2 (some centres unmarked) [KDG-0261] | C″ | – | – |
| Cc1n[nH]c2c1C(c1cc(C#C[C@H]3C[C@@H](COC(N)=O)C3)cc(C(C)(C)O)c1)(C(C)C)C(C#N)=C(N)O2 (some centres unmarked) [KDG-0262-100] | C″ | – | – |
| Cc1n[nH]c2c1C(c1cc(C#C[C@H]3C[C@@H](C(=O)N(C)C)C3)cc(CO)c1)(C(C)C)C(C#N)=C(N)O2 (some centres unmarked) [KDG-0265-100] | B″ | – | – |
| CC(=O)OCC1CC(C#Cc2cc(CO)cc(C3(C(C)C)C(C#N)=C(N)Oc4[nH]nc(C)c43)c2)C1 (centres unmarked) [KDG-0266] | B″ | – | – |
| Cc1n[nH]c2c1C(c1cc(C#C[C@H]3C[C@@](C)(O)C3)cc(CO)c1)(C(C)C)C(C#N)=C(N)O2 (some centres unmarked) [KDG-0268] | C″ | – | – |
| CC(=O)O[C@]1(C)C[C@H](C#Cc2cc(CO)cc(C3(C(C)C)C(C#N)=C(N)Oc4[nH]nc(C)c43)c2)C1 (some centres unmarked) [KDG-0269] | B″ | – | – |
| Cc1n[nH]c2c1C(c1cc(C#CC3CCC(=O)CC3)cc(CO)c1)(C(C)C)C(C#N)=C(N)O2 (centres unmarked) [KDG-0270-100] | B″ | – | – |
| Cc1n[nH]c2c1C(c1cc(C#CC3CN(C(=O)OC(C)(C)C)C3)cc(CO)c1)(C(C)C)C(C#N)=C(N)O2 (centres unmarked) [KDG-0271-0-pk1] | A″ | – | – |
| Cc1n[nH]c2c1C(c1cc(C#CC3CN(C(=O)OC(C)(C)C)C3)cc(CO)c1)(C(C)C)C(C#N)=C(N)O2 (centres unmarked) [KDG-0271-0-pk2] | D″ | – | – |
| Cc1n[nH]c2c1C(c1cc(C#CC3CNC3)cc(CO)c1)(C(C)C)C(C#N)=C(N)O2 (centres unmarked) [KDG-0271-200] | D″ | – | – |
| CC(=O)O[C@]1(C)CC[C@H](C#Cc2cc(CO)cc(C3(C(C)C)C(C#N)=C(N)Oc4[nH]nc(C)c43)c2)CC1 (some centres unmarked) [KDG-0272] | A″ | – | – |
| COC(=O)N1CC(C#Cc2cc(CO)cc(C3(C(C)C)C(C#N)=C(N)Oc4[nH]nc(C)c43)c2)C1 (centres unmarked) [KDG-0281] | B″ | – | – |
| CC(=O)OCc1cc(C#CC2CN(C(=O)OC(C)(C)C)C2)cc(C2(C(C)C)C(C#N)=C(N)Oc3[nH]nc(C)c32)c1 (centres unmarked) [KDG-0284] | B″ | – | – |
| Cc1n[nH]c2c1C(c1cc(C#CC3CCN(C(=O)OC(C)(C)C)C3)cc(CO)c1)(C(C)C)C(C#N)=C(N)O2 (centres unmarked) [KDG-0287] | B″ | – | – |
| Cc1n[nH]c2c1C(c1cc(C#CC3CCCN(C(=O)OC(C)(C)C)C3)cc(CO)c1)(C(C)C)C(C#N)=C(N)O2 (centres unmarked) [KDG-0288] | C″ | – | – |
| Cc1n[nH]c2c1C(c1cc(C#CC3CN(C(=O)OC(C)(C)C)C3)cc(COC(=O)C(C)C)c1)(C(C)C)C(C#N)=C(N)O2 (centres unmarked) [KDG-0293] | A″ | – | – |
| Cc1n[nH]c2c1C(c1cc(C#CC3CN(C(=O)OC(C)(O)O)C3)cc(COC(=O)C(N)C(C)O)c1)(C(C)C)C(C#N)=C(N)O2 (centres unmarked) [KDG-0294] | B″ | – | – |
| Cc1n[nH]c2c1C(c1cc(C#CC3(C)CN(C(=O)OC(C)(C)C)C3)cc(CO)c1)(C(C)C)C(C#N)=C(N)O2 (centres unmarked) [KDG-0300] | – | 5 to 10 | > 250 |
| Cc1n[nH]c2c1C(c1cc(C#CC3(C)CCN(C(=O)OC(C)(C)C)C3)cc(CO)c1)(C(C)C)C(C#N)=C(N)O2 (centres unmarked) [KDG-0304] | B″ | – | – |
| COC(=O)N1CCC(C)(C#Cc2cc(CO)cc(C3(C(C)C)C(C#N)=C(N)Oc4[nH]nc(C)c43)c2)CC1 (centres unmarked) [KDG-0308] | B″ | – | – |
| Cc1n[nH]c2c1C(c1cc(C#C[C@H]3C[C@@H](NC(=O)OC(C)(C)C)C3)cc(CF)c1)(C(C)C)C(C#N)=C(N)O2 (some centres unmarked) [KDG-0383] | B″ | – | – |
| Cc1n[nH]c2c1C(c1cc(C#C[C@H]3C[C@H](NC(=O)OC(C)(C)C)C3)cc(CO)c1)(C(C)C)C(C#N)=C(N)O2 (some centres unmarked) [KDG-0385, tert-butyl N-[(1r,3r)-3-[2-(3-[6-amino-5-cyano-4-isopropyl-3-methyl-1H-pyrano[2,3-c]pyrazol-4-yl]-5-(hydroxymethyl)phenyl)ethynyl]cyclobutyl]carbamate] | B″ | – | – |

| Compound | IC50 (HCT116) | half-life at 2 µM [1] [min] | microsomal CLint at 2 µM [1] [µL/min/mg] |
| --- | --- | --- | --- |
| Cc1n[nH]c2c1C(c1cc(C#C[C@H]3C[C@](C)(NC(=O)OC(C)(C)C)C3)cc(CO)c1)(C(C)C)C(C#N)=C(N)O2 (some centres unmarked) [KDG-0387] | B″ | – | – |
| Cc1n[nH]c2c1C(c1cc(C#C[C@H]3C[C@H](NC(=O)OC(C)(C)C)C3)cc(CF)c1)(C(C)C)C(C#N)=C(N)O2 (some centres unmarked) [KDG-0390] | B″ | – | – |
| Cc1n[nH]c2c1C(c1cc(C#C[C@H]3C[C@H](C(=O)OC(C)(C)C)C3)cc(CO)c1)(C(C)C)C(C#N)=C(N)O2 (some centres unmarked) [KDG-0393] | – | < 5 | – |
| Cc1n[nH]c2c1C(c1cc(C#C[C@H]3C[C@@H](CNC(=O)OC(C)(C)C)C3)cc(CO)c1)(C(C)C)C(C#N)=C(N)O2 (some centres unmarked) [KDG-0395-100] | B″ | – | – |
| Cc1n[nH]c2c1C(c1cc(C#C[C@H]3C[C@H](CNC(=O)OC(C)(C)C)C3)cc(CO)c1)(C(C)C)C(C#N)=C(N)O2 (some centres unmarked) [KDG-0395] | B″ | – | – |
| CCC(C)(C)OC(=O)N1CC(C#Cc2cc(CO)cc(C3(C(C)C)C(C#N)=C(N)Oc4[nH]nc(C)c43)c2)C1 (centres unmarked) [KDG-0411] | B″ | – | – |
| Cc1n[nH]c2c1C(c1cc(C#CC3CN(C(=O)OC(C)C)C3)cc(CO)c1)(C(C)C)C(C#N)=C(N)O2 (centres unmarked) [KDG-0416] | A″ | – | – |
| COCC(C)(C)OC(=O)N1CC(C#Cc2cc(CO)cc(C3(C(C)C)C(C#N)=C(N)Oc4[nH]nc(C)c43)c2)C1 (centres unmarked) [KDG-0418] | B″ | – | – |
| Cc1nnc(N[C@H]2CC[C@@H](C#Cc3cc(CO)cc(C4(C(C)C)C(C#N)=C(N)Oc5[nH]nc(C)c54)c3)CC2)o1 (some centres unmarked) [KDG-0516] | C″ | – | – |
| Cc1nnc(N[C@H]2CC[C@H](C#Cc3cc(CO)cc(C4(C(C)C)C(C#N)=C(N)Oc5[nH]nc(C)c54)c3)CC2)o1 (some centres unmarked) [KDG-0518] | C″ | – | – |
| Cc1n[nH]c2c1C(c1cc(C#C[C@H]3C[C@@H](NC(=O)OC(C)C)C3)cc(CO)c1)(C(C)C)C(C#N)=C(N)O2 (some centres unmarked) [KDG-0520] | A″ | – | – |
| Cc1n[nH]c2c1C(c1cc(C#C[C@H]3C[C@@H](NC(=O)OCc4ccccc4)C3)cc(CO)c1)(C(C)C)C(C#N)=C(N)O2 (some centres unmarked) [KDG-0521] | A″ | – | – |
| COC(=O)N[C@H]1C[C@H](C#Cc2cc(CO)cc(C3(C(C)C)C(C#N)=C(N)Oc4[nH]nc(C)c43)c2)C1 (some centres unmarked) [KDG-0522-100] | B″ | – | – |
| COC(=O)N[C@H]1C[C@@H](C#Cc2cc(CO)cc(C3(C(C)C)C(C#N)=C(N)Oc4[nH]nc(C)c43)c2)C1 (some centres unmarked) [KDG-0522] | B″ | – | – |
| Cc1n[nH]c2c1C(c1cc(C#C[C@H]3C[C@@H](NC(=O)NC(C)(C)C)C3)cc(CO)c1)(C(C)C)C(C#N)=C(N)O2 (some centres unmarked) [KDG-0523] | B″ | – | – |
| Cc1n[nH]c2c1C(c1cc(C#C[C@H]3C[C@@H](NC(=O)OCC(C)(C)C)C3)cc(CO)c1)(C(C)C)C(C#N)=C(N)O2 (some centres unmarked) [KDG-0524] | B″ | – | – |
| Cc1n[nH]c2c1C(c1cc(C#C[C@H]3C[C@@H](NC(=O)C(C)(C)C)C3)cc(CO)c1)(C(C)C)C(C#N)=C(N)O2 (some centres unmarked) [KDG-0526] | B″ | – | – |
| Cc1n[nH]c2c1C(c1cc(C#C[C@H]3C[C@@H](NC(=O)CC(C)(C)C)C3)cc(CO)c1)(C(C)C)C(C#N)=C(N)O2 (some centres unmarked) [KDG-0527] | B″ | – | – |
| Cc1n[nH]c2c1C(c1cc(C#C[C@H]3C[C@@H](NCC(=O)N(C)C)C3)cc(CO)c1)(C(C)C)C(C#N)=C(N)O2 (some centres unmarked) [KDG-0530] | D″ | – | – |
| Cc1n[nH]c2c1C(c1cc(C#CC3CN(C(=O)CN(C)C)C3)cc(CO)c1)(C(C)C)C(C#N)=C(N)O2 (centres unmarked) [KDG-0547] | D″ | – | – |
| Cc1n[nH]c2c1C(c1cc(C#C[C@H]3C[C@@H](NC(=O)CN(C)C)C3)cc(CO)c1)(C(C)C)C(C#N)=C(N)O2 (some centres unmarked) [KDG-0554] | C″ | – | – |
| Cc1n[nH]c2c1C(c1cc(C#C[C@H]3C[C@H](NC(=O)CN(C)C)C3)cc(CO)c1)(C(C)C)C(C#N)=C(N)O2 (some centres unmarked) [KDG-0555] | C″ | – | – |
| Cc1n[nH]c2c1C(c1cc(C#CC34CC(C(=O)N(C)C)(C3)C4)cc(CO)c1)(C(C)C)C(C#N)=C(N)O2 (centres unmarked) [KDG-0558] | C″ | – | – |
| Cc1nnc(C23CC(C#Cc4cc(CO)cc(C5(C(C)C)C(C#N)=C(N)Oc6[nH]nc(C)c65)c4)(C2)C3)o1 (centres unmarked) [KDG-0573] | B″ | – | – |
| Cc1n[nH]c2c1C(c1cc(C#C[C@H]3C[C@@H](NC(=O)OC(C)(C)C)C3)cc(C(F)(F)F)c1)(C(C)C)C(C#N)=C(N)O2 (some centres unmarked) [KDG-0574] | B″ | – | – |
